This assay addresses PIK3CG (human) (UniProt P48736). As to the kind of experiment: Inhibition of PIK3CG Kinase Activity.
Chain of PIK3CG (human) (P48736 whole entry, looked up): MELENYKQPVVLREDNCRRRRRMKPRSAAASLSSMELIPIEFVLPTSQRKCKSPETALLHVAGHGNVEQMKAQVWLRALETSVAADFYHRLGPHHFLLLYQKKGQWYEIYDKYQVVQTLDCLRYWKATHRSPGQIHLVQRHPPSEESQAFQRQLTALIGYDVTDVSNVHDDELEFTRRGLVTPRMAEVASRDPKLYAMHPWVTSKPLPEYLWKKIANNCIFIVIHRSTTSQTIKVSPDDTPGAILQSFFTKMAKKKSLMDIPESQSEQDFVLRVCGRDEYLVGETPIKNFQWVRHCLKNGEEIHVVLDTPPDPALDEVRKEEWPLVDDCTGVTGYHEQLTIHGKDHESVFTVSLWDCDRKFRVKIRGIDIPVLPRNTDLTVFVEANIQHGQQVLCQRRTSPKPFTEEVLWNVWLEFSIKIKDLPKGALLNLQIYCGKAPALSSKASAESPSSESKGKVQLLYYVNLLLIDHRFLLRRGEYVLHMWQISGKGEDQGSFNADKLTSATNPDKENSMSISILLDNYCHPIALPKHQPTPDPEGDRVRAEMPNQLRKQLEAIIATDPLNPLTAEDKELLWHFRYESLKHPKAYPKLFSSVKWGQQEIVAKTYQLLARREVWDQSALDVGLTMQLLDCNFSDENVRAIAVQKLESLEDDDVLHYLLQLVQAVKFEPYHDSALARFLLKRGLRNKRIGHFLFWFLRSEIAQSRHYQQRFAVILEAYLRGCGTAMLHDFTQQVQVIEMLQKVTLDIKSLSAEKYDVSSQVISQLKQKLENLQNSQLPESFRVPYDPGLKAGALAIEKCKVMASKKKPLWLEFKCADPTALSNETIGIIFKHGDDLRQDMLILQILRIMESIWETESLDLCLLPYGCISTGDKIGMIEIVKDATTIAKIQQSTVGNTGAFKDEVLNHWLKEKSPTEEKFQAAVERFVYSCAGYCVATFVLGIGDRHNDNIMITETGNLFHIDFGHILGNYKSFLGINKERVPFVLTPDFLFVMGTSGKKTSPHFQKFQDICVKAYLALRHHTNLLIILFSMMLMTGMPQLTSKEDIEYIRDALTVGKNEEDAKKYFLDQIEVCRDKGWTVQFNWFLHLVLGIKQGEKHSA
One may read the Ki as a measure of affinity in units of concentration, obtained from inhibition or displacement. As to `COc1cc(-c2cc(C)c3c(n2)CN(c2cncc(OC(F)F)c2)C3=O)cnc1OC`, the Ki was below 100 nM.
Molecule `COc1cc(-c2ccc3c(c2)CN(c2cccc(C(C)=O)c2)C3=O)cnc1OC` came in with an inhibition constant Ki of 100 to 490 nM.
The result for `COc1ncc(-c2ccc3c(n2)CN(c2ccn(C)n2)C3=O)cc1OC(F)F` reads below 100 nM; that for `CCOc1ncc(-c2cc(C)c3c(n2)CN(c2cnn(CC)c2)C3=O)cc1OC`, below 100 nM; that for `Cc1cc(-c2cncc(C(=O)N3CCOCC3)c2)nc2c1C(=O)N(c1cnn(CC(F)(F)F)c1)C2(C)C`, 100 to 490 nM.
For `CON=Cc1cncc(-c2cc(C)c3c(n2)C(C)(C)N(c2cnn(CC(F)(F)F)c2)C3=O)c1`, the inhibition constant Ki was below 100 nM.
In the case of `COc1ncc(-c2cc(C)c3c(n2)CN(c2cnn(CC#N)c2)C3=O)c(OC)n1`, the Ki was below 100 nM.
For the molecule `COc1cncc(-c2cc(C)c3c(n2)CN(c2cnn(C[C@H](C)F)c2)C3=O)c1`, the inhibition constant Ki is below 100 nM.
For `COc1cc(-c2ccc3c(n2)[C@H](C)N(c2cnn(CC#N)c2)C3=O)cnc1OC`, the Ki is below 100 nM.
The molecule `Cc1cc(-c2cncc(NC(=O)C(C)(C)C)c2)nc2c1C(=O)N(c1cnn(CC(F)(F)F)c1)C2(C)C` showed a Ki of 100 to 490 nM.
The result for `COc1cc(-c2cc(C)c3c(n2)C(C)N(c2cnn(C[C@@H](C)O)c2)C3=O)cnc1OC` (stereo partly specified) reads below 100 nM.
In the case of `Cc1cc(-c2cncc(OCC(F)(F)F)c2)nc2c1C(=O)N(c1cnn(CC(F)F)c1)C2`, the inhibitory constant (Ki) was below 100 nM.
The molecule `CCc1cc(N2Cc3nc(-c4cnc(OC)c(OC)c4)cc(C)c3C2=O)n[nH]1` registered an inhibition constant (Ki) below 100 nM.
As for `COc1cc(-c2ccc3c(n2)CN(c2ccc(N4CCC(CCO)C4)nc2)C3=O)cnc1OC` (stereo unspecified), the inhibition constant (Ki) fell in the range of 100 to 490 nM.
`CCNC(=O)c1cncc(-c2cc(C)c3c(n2)CN(c2ccn([C@H]4CCOC4)n2)C3=O)c1` returned an inhibition constant (Ki) of 100 to 490 nM.
As for `COc1cc(-c2ccc3c(c2)CN(c2cnn(C)c2)C3=O)cnc1OC`, the inhibition constant Ki lay within 100 to 490 nM.
Molecule `COc1ncc(-c2cc(C)c3c(n2)CN(c2cnn(CC(F)(F)F)c2)C3=O)cc1O` came in with an inhibition constant (Ki) below 100 nM.
`COc1ncc(-c2cc(C)c3c(c2)CN(c2cnn(CC(F)(F)F)c2)C3=O)nc1OC`: the Ki was below 100 nM.
In the case of `COc1cc(-c2cc(C)c3c(n2)CN(c2cc(C)n(Cc4ccccn4)n2)C3=O)cnc1OC`, the Ki is below 100 nM.
`COc1ncc(-c2ccc3c(n2)CN(c2cnn(CC(F)(F)F)c2)C3=O)cc1CO` showed a Ki of 100 to 490 nM.
`Cc1cc(-c2cc(O)cc(OC(F)(F)F)c2)nc2c1C(=O)N(c1cnn(CC(F)(F)F)c1)C2`: the inhibitory constant (Ki) is below 100 nM.
Turning to `CCn1nc(N2Cc3nc(-c4cnc(OC)c(OC)c4)ccc3C2=O)cc1COC`, the inhibition constant Ki was below 100 nM.
Consider `Cc1cc(-c2cncc(CO)c2)cc2c1C(=O)N(c1cnn(CC(F)(F)F)c1)C2C` (stereo unspecified), for which the Ki was below 100 nM.
For `COc1cc(-c2cc(C)c3c(n2)CN(c2cncc(C#N)c2)C3=O)cnc1OC`, the inhibition constant Ki was below 100 nM.
The result for `CCOc1ncc(-c2cc(C)c3c(n2)[C@@]2(CCCO2)N(c2cnn(CC(F)(F)F)c2)C3=O)cc1OC` reads below 100 nM; that for `COc1cncc(-c2cc(C)c3c(n2)[C@H](C)N(c2ccn(C)n2)C3=O)c1`, below 100 nM.
Under `COc1cc(-c2ccc3c(n2)CN(c2ccc(=O)n(C)c2)C3=O)cnc1OC` stands 100 to 490 nM.
The molecule `COc1cc(-c2ccc3c(c2)CN(c2ccn(CC(N)=O)n2)C3=O)cnc1OC` showed a Ki of 100 to 490 nM.
As for `Cc1cc(-c2cncc(OCC(F)F)c2)nc2c1C(=O)N(c1cc[nH]n1)C2C` (stereo unspecified), the inhibition constant Ki is 100 to 490 nM.
Under `C=C1c2nc(-c3cnc(OC)c(OC)c3)ccc2C(=O)N1c1cnn(CC(F)(F)F)c1` stands below 100 nM.
The molecule `CCOc1cc(-c2ccc3c(n2)CN(c2cnn(CC#N)c2)C3=O)cnc1OC` had a Ki below 100 nM.
The molecule `COc1cncc(-c2cc(C)c3c(n2)[C@@H](C)N(c2ccn(C[C@H](C)O)n2)C3=O)c1` gave an inhibitory constant (Ki) below 100 nM.
In the case of `COc1cc(-c2ccc3c(n2)CN(c2ccc(N4CCOCC4)nc2)C3=O)cnc1OC`, the inhibition constant (Ki) was 100 to 490 nM.
`Cc1cc(-c2cncc(C(=O)NCC(F)(F)F)c2)nc2c1C(=O)N(c1cnn(CC(F)(F)F)c1)C2(C)C` came in with an inhibitory constant (Ki) below 100 nM.
With `COc1cc(-c2cc(C)c3c(n2)CN(c2ccn([C@H]4CCOC4)n2)C3=O)cnc1F`, the inhibition constant Ki is below 100 nM.
`CCn1cc(N2Cc3nc(-c4cncc(OC(F)F)c4)cc(C)c3C2=O)cn1` gave an inhibition constant (Ki) below 100 nM.
In turn, `CCCCOCCOc1cncc(-c2cc(C)c3c(n2)CN(c2cnn(CC(F)(F)F)c2)C3=O)c1` showed a Ki of 100 to 490 nM.
In the case of `CCn1ccc(N2C(=O)c3c(C)cc(-c4cncc(OC)c4)nc3C2C)n1` (stereo unspecified), the Ki was below 100 nM.
Consider `CCn1nc(N2Cc3cc(-c4cnc(OC)c(OC)c4)ccc3C2=O)cc1C`, for which the inhibitory constant (Ki) lay in the range of 100 to 490 nM.
The molecule `COc1cc(-c2ccc3c(c2)CN(c2cnn(CC#N)c2)C3=O)cnc1Cl` displayed an inhibitory constant (Ki) of 100 to 490 nM.
Regarding `COc1cc(-c2ccc3c(n2)CN(c2cnn(Cc4ccc(CO)cc4)c2)C3=O)cnc1OC`, the Ki is below 100 nM.
Regarding `CCOc1cncc(N2Cc3nc(-c4cnc(OC)c(OC)c4)cc(C)c3C2=O)c1`, the Ki was below 100 nM.
For the molecule `COc1cc(-c2ccc3c(n2)CN(c2cnn(CC(C)O)c2)C3=O)cnc1OC` (stereo unspecified), the Ki was below 100 nM.
Under `COc1cc(-c2ccc3c(n2)CN(c2cnn(C)c2)C3=O)cnc1OC` stands below 100 nM; under `COc1cc(-c2ccc3c(n2)[C@@H](C)N(c2ccn(C[C@H](C)O)n2)C3=O)cnc1OC`, below 100 nM; under `COc1cc(-c2cc(C)c3c(n2)C(C)(C)N(c2cnn(CC(F)(F)F)c2)C3=O)cnc1OC(C)C`, below 100 nM.
The molecule `Cc1cc(-c2cncc(OC(F)F)c2)nc2c1C(=O)N(c1cnn(CC(F)(F)F)c1)C2(C)O` (stereo unspecified) yielded an inhibition constant Ki below 100 nM.
For `COc1cc(-c2ccc3c(c2)CN(c2cnn([C@H](C)C#N)c2)C3=O)cnc1OC`, the inhibition constant Ki was below 100 nM.
In the case of `COc1cc(-c2cc(C)c3c(n2)CN(c2cnn(CC(F)(F)F)c2)C3=O)cnc1C`, the Ki is below 100 nM.
Take `Cc1cc(-c2cncc(N)c2)nc2c1C(=O)N(c1cnn(CC(F)(F)F)c1)C2`: the inhibition constant Ki was in the range of 100 to 490 nM.
The molecule `Cc1cc(-c2cncc(OCC(F)(F)F)c2)nc2c1C(=O)N(c1cnn(CC(F)(F)F)c1)C2` had a Ki below 100 nM.
For the molecule `Cc1cc(-c2ccc(Cl)c(O)c2)nc2c1C(=O)N(c1cnn(CC(F)(F)F)c1)C2`, the inhibition constant (Ki) is below 100 nM.
Molecule `COc1cc(-c2ccc3c(n2)CN(c2ccc(N(C)CC(OC)OC)nc2)C3=O)cnc1OC` showed a Ki of 100 to 490 nM.
As for `COc1cc(N2Cc3nc(-c4cnc(OC)c(OC)c4)cc(C)c3C2=O)cnc1CO`, the Ki was below 100 nM.
`COc1ncc(-c2cc(C)c3c(n2)CN(c2cnn(CC(F)(F)F)c2)C3=O)cc1OCC(F)F`: the inhibition constant (Ki) is below 100 nM.
The molecule `COc1cc(-c2ccc3c(n2)[C@H](C)N(c2cccc(C(C)(C)C#N)n2)C3=O)cnc1OC` registered an inhibitory constant (Ki) below 100 nM.
The result for `COc1ncc(-c2cc(C)c3c(n2)CN(c2ccn(C4COC4)n2)C3=O)cc1OC(C)C` reads below 100 nM.
Under `COc1cc(-c2ccc3c(n2)CN(c2cnn([C@H](C)C#N)c2)C3=O)cnc1OC` stands below 100 nM; under `COc1cncc(-c2cc(C)c3c(n2)CN(c2ccn(CC4CCCO4)n2)C3=O)c1` (stereo unspecified), below 100 nM.
Under `COc1cc(-c2ccc3c(n2)C(C)N(c2cncc(C(C)(C)C#N)c2)C3=O)cnc1OC` (stereo unspecified) stands 100 to 490 nM; under `COc1cc(-c2ccc3c(n2)CN(c2cnn(CCN4CCN(C(C)=O)CC4)c2)C3=O)cnc1OC`, 100 to 490 nM; under `Cc1cc(-c2cncc(F)c2)nc2c1C(=O)N(c1cnn(CC#N)c1)C2`, below 100 nM.
For the molecule `COc1cncc(-c2cc(C)c3c(n2)C2(CC=CC2)N(c2cnn(CC(F)(F)F)c2)C3=O)c1`, the Ki is below 100 nM.
For the molecule `Cc1cc(-c2cnc(C)c(OCC(F)(F)F)c2)nc2c1C(=O)N(c1ccn([C@H]3CCOC3)n1)C2`, the inhibition constant (Ki) was below 100 nM.
The molecule `COc1cc(-c2ccc3c(n2)CN(c2ccc(N4CCC(CCO)CC4)nc2)C3=O)cnc1OC` gave an inhibition constant Ki below 100 nM.
Molecule `COc1cc(-c2ccc3c(n2)CN(c2cncc(CO)c2)C3=O)cnc1OC` returned a Ki below 100 nM.
Consider `CCOc1cc(-c2cc(C)c3c(n2)CN(c2ccon2)C3=O)cnc1OC`, for which the Ki is below 100 nM.
The result for `CCOc1ncc(-c2cc(C)c3c(n2)CN(c2ccon2)C3=O)cc1OC` reads below 100 nM; that for `COc1ncc(-c2cc(C)c3c(n2)CN(c2cnn(C(C)(C)C#N)c2)C3=O)c(OC)n1`, below 100 nM.
In turn, `COc1cncc(-c2cc(C)c3c(n2)CN(c2cnn(CC#N)c2)C3=O)c1` gave an inhibition constant Ki below 100 nM.
`Cc1cc(-c2cncc(CO)c2)nc2c1C(=O)N(c1cc[nH]n1)C2` came in with a Ki of 100 to 490 nM.
Under `Cc1ncc(-c2ccc3c(n2)CN(c2cnn(CC(F)(F)F)c2)C3=O)cc1O` stands 100 to 490 nM; under `COc1cc(-c2cc(C)c3c(n2)CN(c2ccc(CO)nc2)C3=O)cnc1OC`, below 100 nM.
In the case of `COc1cc(-c2ccc3c(n2)[C@@H](C)N(c2ccn(C[C@@H](C)O)n2)C3=O)cnc1OC`, the Ki was below 100 nM.
The molecule `COc1cc(-c2ccc3c(n2)CN(c2cncc(C(C)(C)C#N)c2)C3=O)cnc1OC` gave an inhibition constant Ki below 100 nM.
In the case of `COc1cc(-c2ccc3c(c2)CN(c2cnn(CC#N)c2)C3=O)cnc1OC`, the Ki is below 100 nM.
The molecule `CCOc1ncc(-c2cc(C)c3c(n2)C(C)(O)N(c2cnn(CC(F)(F)F)c2)C3=O)cc1OC` (stereo unspecified) showed an inhibitory constant (Ki) below 100 nM.
Take `COc1cncc(-c2cc(C)c3c(n2)[C@@H](C)N(c2ccn(CC(C)(C)O)n2)C3=O)c1`: the inhibition constant Ki is below 100 nM.
The result for `COc1cncc(-c2cc(C)c3c(n2)CN(c2cn(CC(F)(F)F)cn2)C3=O)c1` reads below 100 nM; that for `COc1cc(-c2ccc3c(n2)[C@@H](C)N(c2cn(CC(F)(F)F)cn2)C3=O)cnc1OC`, below 100 nM.
`COc1ncc(-c2cc(C)c3c(n2)C(C)N(c2cnn(CC(F)F)c2)C3=O)cc1C(=O)O` (stereo unspecified) yielded a Ki below 100 nM.
With `Cc1cc(-c2cncc(OCC(F)(F)F)c2)cc2c1C(=O)N(c1cnn(CC(F)(F)F)c1)C2C` (stereo unspecified), the inhibition constant (Ki) is below 100 nM.
`COc1cccc(-c2cc(C)c3c(n2)CN(c2cnn(CC(F)(F)F)c2)C3=O)n1` registered a Ki below 100 nM.
Under `COc1cc(-c2ccc3c(n2)CN(c2cnn(CC(O)C(F)(F)F)c2)C3=O)cnc1OC` (stereo unspecified) stands below 100 nM; under `COc1cc(-c2cc(C)c3c(n2)CN(c2ccsc2)C3=O)cnc1OC`, below 100 nM; under `COc1cc(-c2cc(N3CCC3)c3c(n2)CN(c2cnn(CC(F)(F)F)c2)C3=O)cnc1OC`, below 100 nM.
